In patent US20220135538A1, “P300/CBP HAT INHIBITORS AND METHODS FOR THEIR USE” (Constellation Pharmaceuticals, Inc., priority 2019, published 2022) one finds IC50 and EC50 data, which are given here for 17 molecules.

SMILES strings stand for the structures.

Assay [1] concerns the target T1, p300 HAT domain (residues 1287-1666) (Homo sapiens, UniProt Q09472).
T1 construct: The p300 HAT domain (residues 1287-1666) was expressed; His tag (N); made in house; host or cells: Escherichia coli
T1 sequence (Q09472 1287-1666): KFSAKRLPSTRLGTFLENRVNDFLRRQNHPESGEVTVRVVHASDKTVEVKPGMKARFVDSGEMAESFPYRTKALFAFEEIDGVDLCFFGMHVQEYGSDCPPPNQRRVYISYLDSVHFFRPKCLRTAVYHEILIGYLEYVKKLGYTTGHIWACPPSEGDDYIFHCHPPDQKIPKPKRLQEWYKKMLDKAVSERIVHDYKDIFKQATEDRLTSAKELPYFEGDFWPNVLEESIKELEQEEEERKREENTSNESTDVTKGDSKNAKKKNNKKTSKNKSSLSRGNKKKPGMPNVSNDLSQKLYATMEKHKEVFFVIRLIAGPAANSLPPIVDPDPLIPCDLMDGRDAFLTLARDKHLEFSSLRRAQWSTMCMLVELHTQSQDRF
Briefly: P300 HAT SPA assay (scintillation proximity, acetylation of biotinylated H3(1-21) peptide). The assay is classed as biochemical. As to conditions: 6 nM p300-HAT domain; average of at least 2 replicate titrations. The method, then:
The activity of the compounds described herein as p300/CBP HAT inhibitors may be readily determined using a scintillation proximity assay (SPA) methodology (Udenfriend, S.; Gerber, L.; Nelson, N. Scintillation Proximity Assay: A Sensitive and Continuous Isotopic Method for Monitoring Ligand/Receptor and Antigen/Antibody Interactions. Anal. Biochem. 1987, 161, 494-500).
In a typical experiment the p300 HAT inhibitory activity of the compounds described herein was determined in accordance with the following experimental method.
The p300 HAT domain (residues 1287-1666) was expressed and purified with an N-terminal His tag from Escherichia coli cells. The expressed protein was purified by Ni2+affinity, followed by anion exchange chromatography. Appropriate fractions were pooled and buffer exchanged into 20 mM Hepes pH 7.5, 150 mM NaCl, and 1 mM TCEP.
(§1) Compounds of interest solubilized in DMSO were stamped in a Greiner black 384-well plate in a 10-point duplicate dose response using an Echo 550 (Labcyte). p300-HAT domain purified in-house (aa 1287-1666) was diluted to 6 nM in reaction buffer (50 mM Tris pH 8.0, 100 mM NaCl, 1 mM DTT, 0.069 mM Brij-35, 0.1 mM EDTA, 0.1 mg/mL BSA), combined with 4.14 μM AcCoA (Sigma-Aldrich) and 0.46 μM ^3H-AcCoA (PerkinElmer), and 12.5 μL added to each well and incubated for 30 min at RT. Reactions were initiated with 12.5 μL 2 μM biotinylated H3(1-21) peptide (New England Peptide) and run for 1 hr at RT, then quenched with 20 μL stop solution (200 mM Tris pH 8.0, 200 mM EDTA, 2M NaCl, 160 μM anacardic acid). 35 μL of the reaction volume was transferred to a 384-well streptavidin FlashPlate (PerkinElmer) using a Bravo liquid handler (Velocity 11) and incubated for 1.5 hr at RT. Plates were aspirated, washed with 95 μL wash buffer (15 mM Tris pH 8.5, 0.069 μM Brij-35), aspirated, sealed, and scintillation counts read on a Topcount (PerkinElmer). Data were analyzed in Genedata to determine inhibitor IC50 values.

A further assay deals with T2, full length p300 (Homo sapiens, UniProt Q09472).
T2 construct: used 6 nM purified full length p300 (purchased from Active Motif); purchased Active Motif
T2 sequence (Q09472 whole entry): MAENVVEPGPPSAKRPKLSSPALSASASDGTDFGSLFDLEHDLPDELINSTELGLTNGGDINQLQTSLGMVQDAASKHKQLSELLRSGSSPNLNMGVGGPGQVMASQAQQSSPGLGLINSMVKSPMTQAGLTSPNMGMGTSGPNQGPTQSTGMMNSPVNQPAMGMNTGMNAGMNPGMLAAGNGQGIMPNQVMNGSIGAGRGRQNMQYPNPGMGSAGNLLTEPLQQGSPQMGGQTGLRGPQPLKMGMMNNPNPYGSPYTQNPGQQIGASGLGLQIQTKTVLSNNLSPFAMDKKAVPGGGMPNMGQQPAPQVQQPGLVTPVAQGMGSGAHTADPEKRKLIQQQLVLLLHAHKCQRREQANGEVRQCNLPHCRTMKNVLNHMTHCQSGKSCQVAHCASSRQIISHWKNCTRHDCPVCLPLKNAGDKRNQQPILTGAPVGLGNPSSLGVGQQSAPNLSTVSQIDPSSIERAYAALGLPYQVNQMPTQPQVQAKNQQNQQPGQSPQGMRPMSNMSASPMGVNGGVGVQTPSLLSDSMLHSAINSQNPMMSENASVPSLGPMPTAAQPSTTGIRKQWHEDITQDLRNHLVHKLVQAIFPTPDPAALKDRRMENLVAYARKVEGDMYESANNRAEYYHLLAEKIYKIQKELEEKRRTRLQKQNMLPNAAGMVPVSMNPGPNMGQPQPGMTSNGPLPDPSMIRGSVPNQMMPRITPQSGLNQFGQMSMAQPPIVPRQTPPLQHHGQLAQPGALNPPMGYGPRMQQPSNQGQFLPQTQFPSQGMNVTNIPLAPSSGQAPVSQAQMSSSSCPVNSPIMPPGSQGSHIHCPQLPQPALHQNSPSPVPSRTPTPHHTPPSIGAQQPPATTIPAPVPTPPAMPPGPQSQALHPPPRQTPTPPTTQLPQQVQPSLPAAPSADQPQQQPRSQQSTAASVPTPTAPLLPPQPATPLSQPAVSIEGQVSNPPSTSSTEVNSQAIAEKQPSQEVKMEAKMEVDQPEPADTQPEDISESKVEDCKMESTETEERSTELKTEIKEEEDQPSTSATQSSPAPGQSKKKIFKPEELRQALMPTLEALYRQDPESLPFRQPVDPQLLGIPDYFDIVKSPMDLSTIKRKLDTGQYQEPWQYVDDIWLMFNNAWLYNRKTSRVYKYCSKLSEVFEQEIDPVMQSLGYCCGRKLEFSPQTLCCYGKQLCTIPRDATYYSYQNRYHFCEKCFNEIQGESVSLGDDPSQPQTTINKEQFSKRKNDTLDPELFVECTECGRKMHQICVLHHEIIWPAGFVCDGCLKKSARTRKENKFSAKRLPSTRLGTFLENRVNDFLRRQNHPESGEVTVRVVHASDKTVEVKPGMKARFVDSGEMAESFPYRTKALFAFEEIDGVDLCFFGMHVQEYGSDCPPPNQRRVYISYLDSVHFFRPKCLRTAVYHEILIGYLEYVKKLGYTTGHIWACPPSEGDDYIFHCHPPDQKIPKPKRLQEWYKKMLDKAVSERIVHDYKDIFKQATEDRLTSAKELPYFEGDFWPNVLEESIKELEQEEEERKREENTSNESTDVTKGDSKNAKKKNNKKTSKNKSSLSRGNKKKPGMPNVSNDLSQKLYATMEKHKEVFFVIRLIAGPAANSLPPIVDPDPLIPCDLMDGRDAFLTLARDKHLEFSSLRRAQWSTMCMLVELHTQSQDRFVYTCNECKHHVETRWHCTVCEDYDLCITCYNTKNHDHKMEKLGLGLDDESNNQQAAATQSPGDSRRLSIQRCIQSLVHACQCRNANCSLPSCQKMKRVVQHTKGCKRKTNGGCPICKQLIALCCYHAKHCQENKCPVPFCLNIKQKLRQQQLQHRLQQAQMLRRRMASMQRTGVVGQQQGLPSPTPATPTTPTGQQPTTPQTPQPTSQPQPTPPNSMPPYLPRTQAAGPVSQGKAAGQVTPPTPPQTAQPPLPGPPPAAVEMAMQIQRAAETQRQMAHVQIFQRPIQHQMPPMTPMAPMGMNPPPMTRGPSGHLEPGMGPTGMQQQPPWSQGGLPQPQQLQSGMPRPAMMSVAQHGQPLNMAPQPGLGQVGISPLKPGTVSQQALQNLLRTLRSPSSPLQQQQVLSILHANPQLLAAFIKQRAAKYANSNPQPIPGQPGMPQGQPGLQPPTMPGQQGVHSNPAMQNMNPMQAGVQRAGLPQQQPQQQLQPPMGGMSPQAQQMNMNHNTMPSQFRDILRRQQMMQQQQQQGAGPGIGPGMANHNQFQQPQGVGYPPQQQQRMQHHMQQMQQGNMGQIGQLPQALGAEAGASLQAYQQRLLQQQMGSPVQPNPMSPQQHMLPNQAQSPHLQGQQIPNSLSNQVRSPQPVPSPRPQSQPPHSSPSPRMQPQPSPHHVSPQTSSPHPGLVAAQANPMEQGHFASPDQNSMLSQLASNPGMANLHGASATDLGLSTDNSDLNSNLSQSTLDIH
Nature of the assay: Full length p300 SPA assay. The assay is classed as biochemical. To be noted: 6 nM purified full length p300; read-out: FL P300 IC50. The method, then: as §1
The full length p300 SPA assay was run following the same protocol as p300 HAT SPA assay, but used 6 nM purified full length p300 (purchased from Active Motif) in place of the purified p300-HAT domain.

Assay [2] deals with acetylation of chromatin at H3K18 in HCT-116 cells. Nature of the assay: H3K18Ac MSD cellular assay. The assay is classed as cell-based. As to conditions: Homo sapiens, 2 hr treatment. The method, then:
Select compounds were also evaluated in a H3K18Ac MSD cellular assay that measures the ability of compounds to inhibit the acetylation of chromatin at H3K18, a process catalyzed by p300 and CBP. In a typical experiment the p300 HAT inhibitory activity inside cells of the compounds described herein was determined in accordance with the following experimental method. 20 k HCT-116 cells per well are plated in 75 μL RPMI+10% FBS media the night before treatment. Compounds plated in DMSO at 4× final concentration are resuspended in 30 μL RPMI+10% FBS, then 25 μL is combined with corresponding wells containing cells. Treated cells are incubated for 2 hr at 37° C., then lysed in 500 μL final volume and frozen at −80° C. MSD plates (Meso Scale Discovery) are coated overnight at 4° C. with 60 μL 1:500 α-total histone antibody (Millipore MAB3422) in PBS. Plates are then blocked with 5% BSA in TBST shaking at RT for 1 hr, washed, and 30 μL lysate added to each well for 2 hr shaking at RT. Plates are washed and 25 μL 1:216 α-H3K18ac antibody (CST 9675) in PBS added, then incubated for 1 hr shaking at RT. Plates are washed again, then 25 μL 1:1000 Sulfo-Tag goat α-rabbit antibody (Meso Scale Discovery R32Ab-1) in PBS is added for 1 hr shaking at RT. Plates are washed once more, then 150 μL 1× Read Buffer (MSD #R92TD-3) is added to all wells and read on MSD SECTOR Imager 2400 using the conventional read setup.

Take `CN1CCC(Oc2ccc(NC(=O)C(NCCc3ccc(C#N)cc3)c3ccccc3)nc2)CC1` (single isomer, unassigned) [1 Isomer 1]: the results for the IC50 (in assay [1]; at full length p300) were 0.0277 µM and less than 0.002 µM, respectively. This molecule came in with an EC50 in assay [2] of 0.035 µM. Turning to `CN1CCC(Oc2ccc(NC(=O)C(NCCc3ccc(C#N)cc3)c3ccccc3)nc2)CC1` (single isomer, unassigned) [1 Isomer 2], the IC50 in assay [1] is more than 5 µM; at full length p300 it was 0.24 µM. In the case of `CC(=O)N1CC(Oc2ccc(NC(=O)C(NC[C@@H](C)c3ccc(C#N)cc3)c3ccccc3)nc2)C1` (single isomer, unassigned) [2 Isomer 1], the IC50 in assay [1] was 0.0212 µM; on full length p300, less than 0.002 µM. The same molecule showed an EC50 in assay [2] of 0.02 µM. For the molecule `N#Cc1ccc(CCNC(C(=O)Nc2ccc(OC3CCOCC3)cn2)c2ccccc2)cc1` (single isomer, unassigned) [5 Isomer 1], the IC50 in assay [1] was determined as 0.0976 µM; on full length p300, 0.00369 µM.

For the molecule `N#Cc1ccc(CCNC(C(=O)Nc2ccc(OC3CCOCC3)cn2)c2ccccc2)cc1` (single isomer, unassigned) [5 Isomer 2], the IC50 in assay [1] is more than 2 µM; on full length p300, 0.137 µM. The molecule `Cn1cc(COc2ccc(NC(=O)C(NCCc3ccc(Cl)cc3)c3ccccc3)nc2)cn1` (single isomer, unassigned) [8 Isomer 2] returned an IC50 in assay [1] of 0.0168 µM. This molecule had an EC50 in assay [2] of 0.069 µM. In the case of `CC(=O)N1CCC(Oc2ccc(NC(=O)C(NCCc3ccc(C#N)cc3)c3ccccc3)nc2)CC1` (single isomer, unassigned) [9 Isomer 1], the results for the half-inhibitory concentration (IC50) (in assay [1]; on full length p300) were 0.0564 µM and 0.00421 µM, respectively. As for `CC(=O)N1CCC(Oc2ccc(NC(=O)C(NCCc3ccc(C#N)cc3)c3ccccc3)nc2)CC1` (single isomer, unassigned) [9 Isomer 2], the IC50 in assay [1] was more than 2 µM; at full length p300 it was 0.102 µM. The corresponding values for `CC(CNC(C(=O)Nc1ccc(OC2CN(C(=O)C3CC3)C2)cn1)c1ccccc1)c1ccc(C#N)cc1` (single isomer, unassigned) [21 Isomer 1] are 0.0274 µM and less than 0.002 µM. For `CC(=O)N1CC(Oc2ccc(NC(=O)C(NCC(C)c3ccc(C#N)cc3)c3cccc(F)c3)nc2)C1` (single isomer, unassigned) [23 Isomer 1], the IC50 was 0.0233 µM in assay [1] and less than 0.003 µM on full length p300. In assay [2], the half-maximal effective concentration (EC50) came to 0.0319 µM.

For `CC(=O)N1CC(Oc2ccc(NC(=O)C(NCC(C)c3ccc(C#N)cc3)c3cccc(F)c3)nc2)C1` (single isomer, unassigned) [23 Isomer 2], the IC50 in assay [1] is 0.965 µM. In the case of `CC(=O)N1CC(Oc2ccc(NC(=O)C(NCC(C)c3ccc(C#N)cc3)c3cnn(C)c3)nc2)C1` (single isomer, unassigned) [24 Isomer 1], the IC50 in assay [1] was 0.038 µM; on full length p300, less than 0.003 µM. The molecule further returned an EC50 in assay [2] of 0.057 µM. Take `CC(=O)N1CC(Oc2ccc(NC(=O)C(NCC(C)c3ccc(C#N)cc3)c3cnn(C)c3)nc2)C1` (single isomer, unassigned) [24 Isomer 2]: the midpoint of inhibition in assay [1], the IC50, lay at 0.578 µM. In assay [1], `CC(=O)N1CC(Oc2ccc(NC(=O)C(NCC(C)c3ccc(C#N)cc3)c3cnn(C)c3)nc2)C1` (single isomer, unassigned) [24 Isomer 3] gave an IC50 of more than 2 µM. With `CC(=O)N1CC(Oc2ccc(NC(=O)C(NCC(C)c3ccc(C#N)cc3)c3cnn(C)c3)nc2)C1` (single isomer, unassigned) [24 Isomer 4], the IC50 in assay [1] is more than 2 µM.

In the case of `CC(CNC(C(=O)Nc1ccc(OC2CN(C(=O)OC(C)(C)C)C2)cn1)c1ccccc1)c1ccc(C#N)cc1` (single isomer, unassigned) [25 Isomer 1], the IC50 in assay [1] was more than 1 µM. `CC(CNC(C(=O)Nc1ccc(OC2CN(C(=O)OC(C)(C)C)C2)cn1)c1ccccc1)c1ccc(C#N)cc1` (single isomer, unassigned) [25 Isomer 2] yielded an IC50 in assay [1] of 0.115 µM.
